Laboratory results taken from paper PMC8877224, “Diverse Secondary Metabolites from the Coral-Derived Fungus Aspergillus hiratsukae SCSIO 5Bn1003” (Marine Drugs, 2022).
Read-outs that look alike come from different tables or passages of the source. Where a SMILES comes first, the peptide text is derived from it. [ ]: non-standard residue; d: D form. NMeF = CN[CH](Cc1ccccc1)C(=O)O; 2Abz = Nc1ccccc1C(=O)O

Columns and labels:
MCF-7 (breast cancer) = assay: in vitro cytotoxicity against MCF-7; format: cell-based; conditions: Homo sapiens
Experimental: (§1) All compounds were evaluated for their in vitro cytotoxicity against four human cancer lines, SF-268 (human glioblastoma carcinoma), MCF-7 (breast cancer), HepG-2 (liver cancer), and A549 (lung cancer), as well as antioxidative activity, α-glucosidase inhibitory activity, and antimicrobial activity against the bacteria Staphylococcus aureus and Bacillus subtilis (Tables S1–S3).
(§2) The details of the experimental procedures for cytotoxic and antioxidative bioassays were described previously in our former paper.

[1] = antioxidative activity (DPPH radical scavenging); conditions: for EC50: DPPH radical scavenging; for Inhibition rate antioxidative activity: primary screening, 100 μM
Experimental: as §1, §2

Staphylococcus aureus = assay: antibacterial assay, Mueller–Hinton broth microdilution; format: cell-based; conditions: for inhibition at 50 µM: primary screening, read-out: Inhibition rate Staphylococcus aureus
Experimental: (§3) All the compounds were tested for antibacterial activity against Staphylococcus aureus and Bacillus subtilis using the Mueller–Hinton broth microdilution method. Ciprofloxacin was used as a positive control.

Bacillus subtilis = assay: as above; format: cell-based; conditions: for inhibition at 50 µM: primary screening, read-out: Inhibition rate Bacillus subtilis
Experimental: as §3

[2] = tested on: SF-268 (human glioblastoma carcinoma); assay: in vitro cytotoxicity against SF-268; format: cell-based
Experimental: as §1, §2

HepG-2 (liver cancer) = assay: in vitro cytotoxicity against HepG-2; format: cell-based; conditions: Homo sapiens
Experimental: as §1, §2

[3] = tested on: intersegmental vessel (ISV) formation; assay: zebrafish assay for in vivo anti-angiogenic activity; conditions: zebrafish embryos
Experimental: The maintenance of zebrafish and the collection of embryos followed the method in the literature. One day after fertilization, the embryos were dechorionated with tweezers in a Petri dish coated with 1% agarose and distributed into small Petri dishes (35 × 10 mm) with 3 mL of assay solution, depending on the drug treatment. The embryos receiving a mixture of DMSO (0.1%) were used as the vehicle-treated control and were equivalent to a “no treatment” group. All the experiments were repeated at least three times, with 20 embryos per group.

A549 (lung cancer) = assay: in vitro cytotoxicity against A549; format: cell-based; conditions: Homo sapiens
Experimental: as §1, §2

[4] = MCF7, MCF-7 cells, mean ± SD, read-out: IC50 MCF-7
[5] = Table 4, mean ± SD, read-out: MIC Staphylococcus aureus
[6] = Table 4, mean ± SD, read-out: MIC Bacillus subtilis
[7] = MCF7, primary screening, 50 μM, read-out: Inhibition rate MCF-7
[8] = SF-268, primary screening, 50 μM, read-out: Inhibition rate SF-268
[9] = HepG2, primary screening, 50 μM, read-out: Inhibition rate HepG-2
[10] = A549, primary screening, 50 μM, read-out: Inhibition rate A549
[11] = read-out: MIC against Bacillus subtilis
[12] = read-out: MIC against Staphylococcus aureus

| Structure (SMILES) | Inhibition rate antioxidative activity [1] | inhibition at 50 µM (MCF-7 (breast cancer); [7]) | inhibition at 50 µM [2, 8] | inhibition at 50 µM (HepG-2 (liver cancer); [9]) | inhibition at 50 µM (Staphylococcus aureus) | inhibition at 50 µM (Bacillus subtilis) | inhibition at 50 µM (A549 (lung cancer); [10]) | other results |
| --- | --- | --- | --- | --- | --- | --- | --- | --- |
| COc1cccc2c1C(=O)c1c(O)c3c(c(O)c1C2=O)C[C@@](O)(C(=O)CO)C[C@@H]3O[C@H]1C[C@H](N)[C@H](O)[C@H](C)O1 [Adriamycin, reference compound] |  |  |  |  |  |  |  | IC50 (MCF-7 (breast cancer); [4]): 2.02 ± 0.04 µM |
| O=C1O[C@H]([C@@H](O)CO)C(O)=C1O [Ascorbic acid, reference compound] |  |  |  |  |  |  |  | EC50 [1]: 11.3 ± 0.56 µM |
| O=C(O)c1cn(C2CC2)c2cc(N3CCNCC3)c(F)cc2c1=O [Ciprofloxacin, reference compound] |  |  |  |  |  |  |  | MIC (Staphylococcus aureus; [5]): 0.07 ± 0.001 µg/mL; MIC (Bacillus subtilis; [6]): 0.09 ± 0.003 µg/mL |
| CN1C(=O)C(Cc2ccc(O)cc2)NC(=O)CNC(=O)c2ccccc2NC(=O)C1Cc1ccccc1 (stereo not drawn) [Compound 1, asperhiratide] (cyclo([2Abz]GY[NMeF]); configuration not given here) | 4.30% | 1.03% | 0.82% | 0.38% | 5.22% | 3.87% | 4.4% | inhibitory effect on intersegmental vessel (ISV) formation [3]: weak inhibitory effect |
| CC1C(=O)OCC1CC(OC(=O)c1ccccc1)C(C)(O)C1CCC2(O)C3=CC(=O)C4CC(O)C(O)CC4(C)C3CCC12C [Compound 2, 2S,3R,5R,9S,10R,13R,14R,17S,20R,22R,24S,27S-29-norcyasterone-22-O-benzoate] | 1.60% | 1.01% | 1.43% | 1.45% | 4.34% | 0.67% | 1.21% |  |
| C=C1CCC2CC1C2(C)C1CCC(C)C(=O)O1 (stereo not drawn) [Compound 3, asperhiratone] | 2.00% | 3.24% | 2.31% | 0.13% | 7.98% | 9.17% | 0.83% |  |
| CC(C)[C@H](C)C[C@@H](O)[C@](C)(O)C1CC[C@@]2(O)C3=CC(=O)C4C[C@@H](O)CC[C@]4(C)C3CC[C@]12C (stereo partly drawn) [Compound 4, schizaeasterone A] | 2.80% | 19.1% | 8.79% | 1.57% | 19.4% | 5.23% | 8.6% |  |
| C=C1C[C@]2(O)[C@@]3(C)CCC(=O)C(C)(C)C3=C(O)C(=O)[C@@]2(C)[C@@H]2C(=O)O[C@@](C)(C(=O)OC)C(=O)[C@@]12C [Compound 5, terretonin] | 1.90% | 5.62% | 4.58% | 3.52% | 11.8% | 8.18% | 2.97% |  |
| CC(C)[C@H](C)/C=C/[C@@H](C)[C@H]1CCC2C3=CC(=O)O[C@@]3(O)CC[C@@]21C (stereo partly drawn) [Compound 6, demethylincisterol A2] | 1.00% | 92.2% | 93.2% | 81.4% | 29.4% | 79.6% | 0.41% | IC50 (MCF-7 (breast cancer); [4]): 39.4 ± 0.52 µM; IC50 ([2]; SF-268 cells, mean ± SD, read-out: IC50 SF-268): 34.8 ± 0.95 µM; IC50 (HepG-2 (liver cancer); HepG2, HepG-2 cells, mean ± SD, read-out: IC50 HepG-2): 43.6 ± 2.08 µM; MIC (Bacillus subtilis; [6]): 10.3 ± 0.76 µg/mL; MIC (Bacillus subtilis; [11]): 10.3 ± 0.76 µM; IC50 (A549 (lung cancer); A549 cells, mean ± SD, read-out: IC50 A549): 50.2 ± 0.54 µM |
| CC(C)=CC=CC(C)C1CCC2(C)CC3C(C)=CC(=O)C3C(C(=O)O)=CCC12 (stereo not drawn) [Compound 7, asperophiobolin E] | 3.60% | 38.8% | 9.64% | 40.7% | 82.4% | 94.3% | 0.58% | MIC (Staphylococcus aureus; [5]): 103 ± 4.5 µg/mL; MIC (Staphylococcus aureus; [12]): 103 ± 4.5 µM; MIC (Bacillus subtilis; [6]): 17 ± 1.25 µg/mL; MIC (Bacillus subtilis; [11]): 17 ± 1.25 µM |
| COC(=O)[C@]1(Cc2ccc(O)c(CC=C(C)C)c2)OC(=O)C(O)=C1c1ccc(O)cc1 [Compound 8, butyrolactone I] | 2.50% |  |  |  | 84.4% | 91.3% |  | IC50 (MCF-7 (breast cancer); MCF7, read-out: IC50 MCF-7): 38.6 ± 2.48 µM; inhibition at 50 µM (MCF-7 (breast cancer); MCF7, read-out: Inhibition rate MCF-7): 50.7%; IC50 ([2]; SF-268, read-out: IC50 SF-268): 31.4 ± 1.98 µM; inhibition at 50 µM ([2]; SF-268, read-out: Inhibition rate SF-268): 41.9%; IC50 (HepG-2 (liver cancer); HepG2, read-out: IC50 HepG-2): 31 ± 3.04 µM; inhibition at 50 µM (HepG-2 (liver cancer); HepG2, read-out: Inhibition rate HepG-2): 69.1%; MIC (Staphylococcus aureus; read-out: MIC Staphylococcus aureus): 59.54 ± 0.5 µg/mL; MIC (Staphylococcus aureus; [12]): 59.54 ± 0.5 µM; MIC (Bacillus subtilis; read-out: MIC Bacillus subtilis): 5.3 ± 0.29 µg/mL; MIC (Bacillus subtilis; [11]): 5.3 ± 0.29 µM; IC50 (A549 (lung cancer); A549, read-out: IC50 A549): 32.3 ± 2.36 µM; inhibition at 50 µM (A549 (lung cancer); A549, read-out: Inhibition rate A549): 21.5% |
| COC(=O)[C@]1(Cc2ccc(O)c(CC(O)C(C)(C)O)c2)OC(=O)C(O)=C1c1ccc(O)cc1 (stereo partly drawn) [Compound 9, butyrolactones VI] |  | 17.7% | 8.47% | 5.43% | 19.6% | 3.76% | 0.29% | EC50 [1]: 12.2 ± 0.78 µM; IC50 ([1]; as given in abstract, read-out: radical scavenging activities against DPPH, IC50): 12.2 ± 0.78 µM |
| C=CC(C)(C)[C@@]12C[C@H]3C(=O)Nc4ccccc4C(=O)N3[C@H]1N(C=O)c1ccccc12 [Compound 10, epi-aszonalenins B] | 0.40% | 42.2% | 32.9% | 6.7% | 12.6% | 0.3% | 0.73% |  |
| CCCCCCCc1c(O)cc(CC=C(C)C)c(O)c1C=O [Compound 11, flavoglaucin] | 18.20% | 0.49% | 0.81% | 0.39% | 13% | 17.5% | 1.53% |  |
| COC(=O)C1=C[C@@H](O)[C@@H](O)[C@H](O)C1 [Compound 13, methyl shikimate] | 32.90% | 0.66% | 0.59% | 0.66% | 11.8% | 7.69% | 0.36% |  |
